Measurements taken from patent EP4678638A1, “NEW E3 UBIQUITIN LIGASE LIGAND, PROTEIN DEGRADATION AGENT AND USE THEREOF” (priority 2023, dated 2024).

Biological target: T1, human Cereblon WT GST-tagged protein (Homo sapiens, UniProt Q96SW2)
T1 construct: purchased CISBIO 64BDCRBNPEH
Assay: CRBN binding, HTRF (CEREBLON BINDING kit)
Conditions: HTRF; for inhibition at 0.5 µM / inhibition at 2 µM: Table II-2, CRBN binding screening; for inhibition at 0.5 µM: read-out: Inhibition rate (%) at 0.5µM; for inhibition at 2 µM: read-out: Inhibition rate (%) at 2 µM
Experimental: The CEREBLON BINDING kits (specification: 10,000 tests; product number: Catalog # 64BDCRBNPEH; CISBIO company) was used to determine the CRBN binding ability of the compounds to be tested through a HTRF method (homogeneous time-resolved fluorescence). The specific methods are as follows: • 1. […] Then, 2.5 µL of human Cereblon WT GST-tagged protein solution was added to each well. Finally, 5 µL of the thoroughly mixed Thalidomide-Re reagent and GST Eu antibody working solution were added to each of the aforementioned wells. […] The blank control wells were sequentially added with 2.5 µL of diluent #9 (1X) solution, 2.5 µL of binding buffer, and 5 µL of thoroughly mixed Thalidomide-Re reagent and GST Eu antibody working solution. • 4. After sealing and incubating the solutions in the aforementioned wells at room temperature for 3 hours, the […] at emission wavelengths of 620 nm and 665 nm were detected by the HTRF method using a Spark microplate reader (V3.1 SP1).

T1 sequence (Q96SW2 whole entry): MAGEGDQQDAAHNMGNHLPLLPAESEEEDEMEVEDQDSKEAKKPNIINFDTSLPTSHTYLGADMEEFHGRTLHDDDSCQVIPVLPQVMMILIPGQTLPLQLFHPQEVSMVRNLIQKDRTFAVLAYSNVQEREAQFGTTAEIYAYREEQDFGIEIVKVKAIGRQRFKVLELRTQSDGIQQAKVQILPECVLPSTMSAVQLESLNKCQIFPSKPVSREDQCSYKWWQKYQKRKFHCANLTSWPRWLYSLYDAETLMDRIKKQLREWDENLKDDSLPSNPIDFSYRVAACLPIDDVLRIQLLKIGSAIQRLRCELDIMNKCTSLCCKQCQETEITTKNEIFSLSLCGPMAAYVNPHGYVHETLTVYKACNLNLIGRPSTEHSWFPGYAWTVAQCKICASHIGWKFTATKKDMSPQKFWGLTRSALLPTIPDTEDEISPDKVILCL

inhibition at 0.5 µM [%]	inhibition at 2 µM [%]	IC50 (Table II-1, CRBN binding) [nM]	Compound
60 to 80	80 to 100	–	CC(C)(O)c1cc2nc(C3CCN(Cc4cc(C5CCC(=O)NC5=O)cnc4F)CC3)oc2cc1NC(=O)c1cccc(C(F)(F)F)n1 (centres unmarked) [GT-07629, N-(2-(1-((5-(2,6-dioxopiperidin-3-yl)-2-fluoropyridin-3-yl)methyl)piperidin-4-yl)-5-(2-hydroxypropan-2-yl)benzo[d]oxazol-6-yl)-6-(trifluoromethyl)picolinamide]
20 to 30	80 to 100	–	CC(=O)c1c(C)c2cnc(Nc3ccc(N4CCN(Cc5cc(C6CCC(=O)NC6=O)cnc5F)CC4)cn3)nc2n(C2CCCC2)c1=O (centres unmarked) [GT-07591, 3-(5-((4-(6-((6-acetyl-8-cyclopentyl-5-methyl-7-oxo-7,8-dihydropyrido[2,3-d]pyrimidin-2-yl)amino)pyridin-3-yl)piperazin-1-yl)methyl)-6-fluoropyridin-3-yl)piperidine-2,6-dione]
40 to 53	80 to 100	–	COc1cc2nn(C3CCN(Cc4cc(C5CCC(=O)NC5=O)cnc4F)CC3)cc2cc1NC(=O)c1cccc(C(F)(F)F)c1 (centres unmarked) [GT-07547, N-(2-(1-((5-(2,6-dioxopiperidin-3-yl)-2-fluoropyridin-3-yl)methyl)piperidin-4-yl)-6-methoxy-2H-indazol-5-yl)-3-(trifluoromethyl)benzamide]
20 to 30	60 to 80	–	CC(C)Nc1cc(-n2ccc3cc(C#N)cnc32)ncc1C(=O)NC1CCN(Cc2cc(N3CCC(=O)NC3=O)cnc2F)CC1 [GT-07779, 6-(5-cyano-1H-pyrrolo[2,3-b]pyridin-1-yl)-N-(1-((5-(2,4-dioxotetrahydropyrimidin-1(2H)-yl)-2-fluoropyridin-3-yl)methyl)piperidin-4-yl)-4-(isopropylamino)nicotinamide]
40 to 53	60 to 80	–	CC(C)(O)c1cc2nn(C3CCN(Cc4ccc(C5CCC(=O)NC5=O)cn4)CC3)cc2cc1NC(=O)c1cccc(C(F)(F)F)n1 (centres unmarked) [GT-07541, N-(2-(1-((5-(2,6-dioxopiperidin-3-yl)pyridin-2-yl)methyl)piperidin-4-yl)-6-(2-hydroxypropan-2-yl)-2H-indazol-5-yl)-6-(trifluoromethyl)picolinamide]
30 to 40	60 to 80	–	O=C1CCN(c2cncc(CN3CCC(n4cc(NC(=O)c5cnn6ccc(N7CCOCC7)nc56)c(C(F)F)n4)CC3)c2)C(=O)N1 [GT-07766, N-(3-(difluoromethyl)-1-(1-((5-(2,4-dioxotetrahydropyrimidin-1(2H)-yl)pyridin-3-yl)methyl)piperidin-4-yl)-1H-pyrazol-4-yl)-5-morpholinopyrazolo[1,5-a]pyrimidine-3-carboxamide]
53 to 60	80 to 100	–	CC(=O)c1c(C)c2cnc(Nc3ccc(N4CCN(Cc5cncc(C6CCC(=O)NC6=O)c5)CC4)cn3)nc2n(C2CCCC2)c1=O (centres unmarked) [GT-07485, 3-(5-((4-(6-((6-acetyl-8-cyclopentyl-5-methyl-7-oxo-7,8-dihydropyrido[2,3-d]pyrimidin-2-yl)amino)pyridin-3-yl)piperazin-1-yl)methyl)pyridin-3-yl)piperidine-2,6-dione]
20 to 30	60 to 80	–	COc1cc2nn(C3CCN(Cc4cc(N5CCC(=O)NC5=O)cnc4F)CC3)cc2cc1NC(=O)c1cccc(C(F)(F)F)n1 [GT-07799, N-(2-(1-((5-(2,4-dioxotetrahydropyrimidin-1(2H)-yl)-2-fluoropyridin-3-yl)methyl)piperidin-4-yl)-6-methoxy-2H-indazol-5-yl)-6-(trifluoromethyl)picolinamide]
10 to 20	60 to 80	–	CN(c1nccnc1CNc1nc(Nc2ccc(N3CCN(Cc4ccc(C5CCC(=O)NC5=O)cc4)CC3)cc2)ncc1C(F)(F)F)S(C)(=O)=O (centres unmarked) [GT-07399, N-(3-(((2-((4-(4-(4-(2,6-dioxopiperidin-3-yl)benzyl)piperazin-1-yl)phenyl)amino)-5-(trifluoromethyl)pyrimidin-4-yl)amino)methyl)pyrazin-2-yl)-N-methylmethanesulfonamide]
60 to 80	80 to 100	–	CC(C)(O)c1cc2nn(C3CCN(Cc4cc(C5CCC(=O)NC5=O)cnc4F)CC3)cc2cc1NC(=O)c1cccc(C(F)(F)F)n1 (centres unmarked) [GT-07793, N-(2-(1-((5-(2,6-dioxopiperidin-3-yl)-2-fluoropyridin-3-yl)methyl)piperidin-4-yl)-6-(2-hydroxypropan-2-yl)-2H-indazol-5-yl)-6-(trifluoromethyl)picolinamide]

The remaining lines, values behind:

Compound	inhibition at 0.5 µM [%]	inhibition at 2 µM [%]	IC50 (Table II-1, CRBN binding) [nM]
O=C1CCN(c2cnc(F)c(CN3CCN(c4ccc(-c5cc(F)c6c(c5)C(=O)N(C(CNc5nccs5)c5ncn7c5CCC7)C6)cc4)CC3)c2)C(=O)N1 (centres unmarked) [GT-07760, 1-(5-((4-(4-(2-(1-(6,7-dihydro-5H-pyrrolo[1,2-c]imidazol-1-yl)-2-(thiazol-2-ylamino)ethyl)-7-fluoro-3-oxoisoindolin-5-yl)phenyl)piperazin-1-yl)methyl)-6-fluoropyridin-3-yl)dihydropyrimidine-2,4(1H,3H)-dione]	40 to 53	60 to 80	–
CNC(=O)c1ccccc1Nc1cc(Nc2cc(C)c(C3CCN(Cc4ccc(N5CCC(=O)NC5=O)cn4)CC3)cc2OC(C)C)ncc1C(F)(F)F [GT-07669, 2-((2-((4-(1-((5-(2,4-dioxotetrahydropyrimidin-1(2H)-yl)pyridin-2-yl)methyl)piperidin-4-yl)-2-isopropoxy-5-methylphenyl)amino)-5-(trifluoromethyl)pyridin-4-yl)amino)-N-methylbenzamide]	10 to 20	53 to 60	–
Cn1cc(-c2cc(S(C)(=O)=O)ccc2OCc2ccc(N3CCC(=O)NC3=O)cc2)c2cc[nH]c2c1=O [GT-04645, 1-(4-((2-(6-methyl-7-oxo-6,7-dihydro-1H-pyrrolo[2,3-c]pyridin-4-yl)-4-(methylsulfonyl)phenoxy)methyl)phenyl)dihydropyrimidine-2,4(1H,3H)-dione]	20 to 30	53 to 60	–
O=C1CCN(c2ccc(CCl)nc2)C(=O)N1 [GT-06984, 1-(6-(Chloromethyl)pyridin-3-yl)dihydropyrimidine-2,4(1H,3H)-dione]	30 to 40	60 to 80	–
CNC(=O)c1ccccc1Nc1cc(Nc2cc(C)c(C3CCN(Cc4ccc(N5CCC(=O)NC5=O)cc4)CC3)cc2OC(C)C)ncc1C(F)(F)F [GT-07667, 2-((2-((4-(1-(4-(2,4-dioxotetrahydropyrimidin-1(2H)-yl)benzyl)piperidin-4-yl)-2-isopropoxy-5-methylphenyl)amino)-5-(trifluoromethyl)pyridin-4-yl)amino)-N-methylbenzamide]	20 to 30	53 to 60	–
[2H]C1([2H])N(CC[C@H](CSc2ccccc2)Nc2ccc(S(=O)(=O)NC(=O)c3ccc(N4CCN(CC5=C(c6ccc(Cl)cc6)CCC(C)(C)C5)CC4)cc3)cc2S(=O)(=O)C(F)(F)F)C([2H])([2H])C([2H])([2H])N(Cc2ccc(C3CCC(=O)NC3=O)cc2)C1([2H])[2H] (stereo partly drawn) [GT-07906, 4-(4-((4'-chloro-4,4-dimethyl-3,4,5,6-tetrahydro-[1,1'-biphenyl]-2-yl)methyl)piperazin-1-yl)-N-((4-(((2R)-4-(4-(4-(2,6-dioxopiperidin-3-yl)benzyl)piperazin-1-yl-2,2,3,3,5,5,6,6-d8)-1-(phenylthio)butan-2-yl)amino)-3-((trifluoromethyl)sulfonyl)phenyl)sulfonyl)benzamide]	20 to 30	53 to 60	–
O=C1CCN(c2ccc(CN3CCN(C4CCN(c5ccc([C@@H]6c7ccc(O)cc7CC[C@@H]6c6ccccc6)cc5)CC4)CC3)cc2F)C(=O)N1 [GT-04738, 1-(2-fluoro-4-((4-(1-(4-((1R,2S)-6-hydroxy-2-phenyl-1,2,3,4-tetrahydronaphthalen-1-yl)phenyl)piperidin-4-yl)piperazin-1-yl)methyl)phenyl)dihydropyr imidine-2,4(1H,3H)-dione]	–	–	1000 to 1900
CC(=O)c1c(C)c2cnc(Nc3ccc(N4CCN(Cc5cncc(N6CCC(=O)NC6=O)c5)CC4)cn3)nc2n(C2CCCC2)c1=O [GT-07482, 1-(5-((4-(6-((6-acetyl-8-cyclopentyl-5-methyl-7-oxo-7,8-dihydropyrido[2,3-d]pyrimidin-2-yl)amino)pyridin-3-yl)piperazin-1-yl)methyl)pyridin-3-yl)dihydropyrimidine-2,4(1H,3H)-dione]	20 to 30	80 to 100	–
